System: Human dermal fibroblasts
Experiment: Hyaluronic Acid (HA) Secretion (Assay 4, ELISA)
Assay type: cell-based
Conditions: 20 ng/ml (positive control), 48 hours post-treatment
Method: Human dermal fibroblasts were maintained in flask in growth medium consisting of DMEM plus 10% fetal bovine serum, 50 units/ml penicillin and 50 μg/ml streptomycin. Cells were seeded at 10,000 cells per well in a 96 well plate. After 24 hours incubation, cells were treated with test articles dissolved in DMSO or DMSO without extracts (as control) prepared in DMEM+2% FBS. Culture media was collected at 48 hours post-treatment, and measured for HA (Hyaluronic acid) secretion using Hyaluronan ELISA kit (Echelon, cat. #K-1200) following the manufacturer protocol. To assess activity, the colorimetric chance was measured at 405 nm and the results expressed as a fold change over untreated controls.

Substance: TGF-b
- HA secretion Fold Change: 2.54 fold

From patent publication US20150024072A1, “METHODS OF TREATING A SKIN CONDITION WITH MALVA NEGLECTA” (Johnson & Johnson Consumer Companies, Inc., priority 2013, published 2015)
